Patent US11918675B2, “Oral care compositions” (priority 2019, dated 2024)

Experiments:
Format in all cases: cell-based
Whole human saliva [1] = test: In vitro malodor study: hydrogen sulfide in headspace by SIFT-MS; conditions: pooled whole human saliva 2% in growth medium, incubated overnight, n=6; groups stratified by growth and pH
Procedure: (§1) An in vitro malodor study was conducted to evaluate the effect of various combinations of inulin and xylitol with zinc on oral malodor. Malodor is a combination of hydrogen sulfide and other volatile compounds. Microbial growth as measured by OD610, and fermentation, as measured by pH (confounding variables that impact oral malodor) were also evaluated.
(§2) Whole human saliva was collected from four donors, pooled and suspended in growth medium at a 2% final concentration. Stock, simple solutions of inulin, xylitol, and zinc citrate were prepared in growth medium and incorporated according to the experiment design specified in Table 3 (below). Treatment suspensions were incubated overnight in sterilized headspace vials.
(§3) Malodor (i.e., hydrogen sulfide and other volatile compounds) in the culture vial headspace was quantified using validated procedures on Voice200ultra SIFT-MS (Syft Technologies, Christchurch, New Zealand). Following SIFT-MS analysis, microbial growth was quantified using optical density at λ=610 nm.
Hydrogen sulfide in headspace of salivary inoculum was quantified using SIFT-MS validated procedure.

Whole human saliva [2] = test: In vitro malodor study: fermentation measured by pH; conditions: pooled whole human saliva 2% in growth medium, incubated overnight, n=6
Procedure: as §1, §2
The pH was measured using a standard pH meter by following validated procedures. Statistical significance of differences for all parameters was determined using one-way ANOVA test at 95% confidence level with a Tukey pairwise comparison test. Microbial growth and pH were used to stratify the treatments for hydrogen sulfide statistical analysis.

Whole human saliva [3] = test: In vitro malodor study: microbial growth by OD610; conditions: pooled whole human saliva 2% in growth medium, incubated overnight, n=6
Procedure: as §1, §2, §3

Row | Structure (SMILES) | Hydrogen sulfide in headspace of salivary inoculum, Mean (Whole human saliva [1]) | pH, Mean (Whole human saliva [2]) | Microbial growth as observed by OD610, Mean (Whole human saliva [3])
1 | O=C([O-])CC(O)(CC(=O)[O-])C(=O)[O-].O=C([O-])CC(O)(CC(=O)[O-])C(=O)[O-].[Zn+2].[Zn+2].[Zn+2] [Example 5, zinc citrate] | 21.86 ppb | 6.5948 | 0.1407
2 | OC[C@@H](O)[C@H](O)[C@@H](O)CO [Example 4, xylitol] | 2243 ppb | 5.9067 | 0.4182
